Reference: patent US6774143B1, “Method for treating cells resistant to antineoplastic agents” (Novartis AG, priority 2003, dated 2004)
Read-outs that look alike come from different tables or passages of the source.

What was measured:
[1] = test system: PTX-22 cells; assay: Antiproliferative assay (MTS); assay type: cell-based, human
Protocol: A549, a human non-small cell lung carcinoma and MDA-MB-435, a human breast carcinoma, used in this study are obtained from the American Type Culture Collection (ATCC, Rockville, Md., USA). MDA-MB-435 cells are maintained in MEM containing 10% FBS, 1% sodium pyruvate, 1% MEM non-essential amino acids, and 15 mM HEPES (pH=7.4). A549 cells are maintained in RPMI 1640 containing 10% FBS. 1A9, a single-cell clone of the human ovarian carcinoma cell line A2780 and PTX22, the paclitaxel-resistant subline, used in this stdy are obtained from M. Wartman (Novartis Pharmauticals). 1A9 cells and PTX22 cells are maintained in RPMI 1640 supplemented with 10% FBS. PTX22 maintenance media also contained 15 ng/mL paclitaxel and 5 μg/mL verapamil. Drug is removed from the media for 5-7 days before use in an experiment. All maintenance media contained 100 units/mL penicillin and 100 μg/mL streptomycin.
Cell lines are trypsinized and counted using a Coulter counter. Cells were plated in 96 well plates (190 μL/well) at the following densities: 1,000 cells/well for A549 and 3,000 cells/well for MDA-MB-435. The number of cells plated results in cell densities of 75-90% confluence by the time of harvest. Plates are seeded on day 0. On day 1 test compounds are added to triplicate wells in a final volume of 10 μL media. Initial cell density for each cell line is measured on day 1 by adding 10 μL MTS mixture (see below), incubating for 4 h and recording absorbance at 490 nm (A490). Two or three days after test compound addition, 10 μL/well of MTS mixture is added to the test plates and A490 was read 4 h later. A490 values for wells containing cells are corrected for media absorbance, then normalized to initial density readings to determine percent net growth. Percent net growth is calculated as (A490+drug−A490 initial)/(A490—drug—A490 initial). Graphs of percent net growth as a function of compound concentration are used to calculate concentrations resulting in 50% growth inhibition (IC50). MTS mixture is prepared fresh on day of addition to cell plates at a ratio of 10 μL of a 0.92 mg/mL solution of phenazine methosulfate (PMS) to 190 μL of a 2 mg/mL solution of MTS (3-(4,5-dimethylthiazol-2-yl)-5-(3-carboxymethoxyphenyl)-2-(4-sulfophenyl)-2H-tetrazolium, inner salt). PMS and MTS solutions are prepared in buffered saline containing 0.2 g/L KCl, 8.0 g/L NaCl, 0.2 g/L KH2PO4, 1.15 g/L Na2HPO4, 133 mg/L CaCl2.2H2O, 100 mg/L MgCl2.6H2O, (pH=7.35) and stored as foil-wrapped aliquots at −20° C. Test compounds are prepared as stock solutions in DMSO. Test compound dilutions are made in 2% DMSO/cell maintenance media and diluted into assay plates to give 0.1% DMSO final in all wells.

[2] = test system: 1A9 cell line; assay: In vivo hollow fiber assay in nude mice
Protocol: (§1) PVDF hollow fibers (Spectrum, Gardena, Calif.) are soaked in 70% EtOH for 72 hours before use. After this step, all handling of fibers are done under a biological laminar flow hood using aseptic procedures. Individual fibers are flushed with 3 mL of the ice-cold tissue culture media using a syringe equipped with a 20-gauge needle. Next, each fiber is filled with an appropriate cell suspension (1×10^6 cells/mL for the 1A9 and 1A9PTX22 cells, and 0.5×10^6 cells/mL for the LS 174T cells), and both ends of the fiber are sealed with a hot flat needle holder. The entire length of the fiber is then sealed into 1.5 cm microcapsules (further called “hollow fibers”), each containing approximately 15 uL of the appropriate cell suspension. After separation, individual hollow fibers are placed in 6 well plates (6 fibers in 5 mL media per well), and are incubated overnight at 37° C. in the tissue culture incubator.
(§2) Outbred athymic (nu/nu) female mice (“Chrls:Athymic Nude-nu”, Charles River Laboratories, Wilmington, Mass.) are anesthetized with ip injections of Ketamine/Xylazine (150 mg/kg, and 12 mg/kg body weight, respectively). For the subcutaneous implantation an 11-gauge trocar containing one or two hollow fibers is inserted into an incision made with scissors at the nape of the neck of an animal, and fibers are released by retracting the trocar while depressing the plunger. This procedure is repeated until all three hollow fibers are implanted. One wound clip is used to close the skin incision After the surgery each animal receives a single, subcutaneous injection of 0.4 mg/kg butorphenol to relieve any potential pain. Animals recover from the anesthesia on a heating pad, before retuning to their cages.
(§3) One day after the implantation (3 hollow fibers/animal, each hollow fiber containing one cell line: LS 174T, 1A9, and 1A9PTX22) animals are randomly sorted into five groups of six mice/group. The first group is sacrificed; hollow fibers are retrieved, and processed according to a published procedure (Hollingshead M G, et al. Life Sciences 1995, 57(2):131-141), to determine the number of viable cells in each fiber (T0.)
(§4) On day 6 all animals are sacrificed, and hollow fibers are retrieved, and processed according to Hollingshead, M G, (supra) to determine the number of viable cells in each fiber (T—for fibers from animals treated with experimental compounds, C—for fibers from animals treated with corresponding vehicles). Antitumor activity is expressed as % Mean ΔT/Mean ΔC [comparing cell growth for treatment group to vehicle control group, where % Mean ΔT/Mean ΔC=(Mean T—Mean T0/Mean C—Mean T0)×100%]. Regressions are calculated using the formula: (1−Mean T/Mean T0)×100%. Statistical significance of the results is uniformly evaluated using a two-tailed Student's t-test.
(§5) Discodermolide is isolated from the sponge Discodermia dissoluta using the method of Gunasekera SP (supra). Multiple batches of compound of similar purity (all>95% pure, as determined by mass spectrometry, and nuclear magnetic resonance analysis) are used throughout the various studies. For the in vitro cytotoxicity assays all compounds are dissolved in DMSO and are added to the plates with cells to obtain desired concentrations. […] Paclitaxel is purchased from Sigma/Aldrich, (St. Louis, Mo.). For the in vivo hollow fiber assay, solid discodermolide is dissolved in pure ethanol to create a stock solution which is diluted just before dosing with Cremophor EL and D5W to a final concentration of 16.7% Cremophor EL, 8.3% ethanol and 75% D5W. The compound is administered to mice as a single, 15 mg/kg iv injection. Positive control animals receive clinical formulations of paclitaxel (TAXOL) diluted 4-fold with D5W (12.5% Cremophor El, 12.5% ethanol and 75% D5W final concentrations) and administered iv, at 15 mg/kg, once daily for five consecutive days. Vehicle controls are administered according to the corresponding drug schedules.

[3] = test system: 1A9PTX22 cell line; assay: In vivo hollow fiber assay in nude mice
Protocol: as §1, §2, §3, §4, §5

[4] = test system: LS 174T cell line; assay: In vivo hollow fiber assay in nude mice
Protocol: as §1, §2, §3, §4, §5

[5] = first experiment, paclitaxel iv 15 mg/kg once daily for 5 days
[6] = second experiment, paclitaxel iv 15 mg/kg once daily for 5 days
[7] = first experiment, discodermolide single 15 mg/kg iv
[8] = second experiment, discodermolide single 15 mg/kg iv

SMILES	IC50 ([1]; Homo sapiens, 72 h, PTX-22 cells, single value given, read-out: 72 hour IC50)	fold less sensitive, PTX-22 versus 1A9 ([1]; from the 72 hour IC50 values)	T/C [2, 5]	T/C [2, 6]	T/C [3, 5]	T/C [3, 6]	T/C [4, 5]	T/C [4, 6]	IC50 ([1]; Homo sapiens, 72 h, read-out: 72 hour IC50, PTX-22 cells, single value given)	IC50 ([1]; Homo sapiens, 72 h, read-out: IC50 cell proliferation, PTX-22 cells, 72 h exposure, two independent experiments)	IC50 ([1]; read-out: IC50 cell proliferation, PTX-22 cells, 72 h exposure, two independent experiments)	T/C [2, 7]	T/C [2, 8]	T/C [3, 7]	regression ([3]; first study, discodermolide single 15 mg/kg iv, p<0.01)	T/C [3, 8]	T/C [4, 7]	T/C [4, 8]
CC(=O)O[C@H]1C(=O)[C@@]2(C)[C@H]([C@H](OC(=O)c3ccccc3)[C@]3(O)C[C@H](OC(=O)[C@H](O)[C@@H](NC(=O)c4ccccc4)c4ccccc4)C(C)=C1C3(C)C)[C@]1(OC(C)=O)CO[C@@H]1C[C@@H]2O [paclitaxel, reference compound]	0.08 µM	13 fold	−8%	2%	79%	90%	3%	8%										
C=C/C=C\[C@H](C)[C@H](OC(N)=O)[C@@H](C)[C@H](O)[C@@H](C)C/C(C)=C\[C@H](C)[C@@H](O)[C@@H](C)/C=C\[C@@H](O)C[C@@H]1OC(=O)[C@H](C)[C@@H](O)[C@H]1C [discodermolide, (+)-Discodermolide]									0.03 µM	0.023 µM	0.037 µM	8%	14%	−13%	13%	13%	7%	13%
